Data reported in PubChem BioAssay (NCI).
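Growth conditions: 96-well plates. Treatment: test compound, 48 hours, 5 concentrations. Analysis: linear interpolation between bracketing concentrations; unreached endpoints set to highest concentration. TGI is the concentration that stops growth completely.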

Tests used:
Test in all cases: NCI anticancer screen, dose series, 48 h
SF-268 CNS = test system: SF-268 CNS
SNB-75 CNS = test system: SNB-75 CNS
SF-295 CNS = test system: SF-295 CNS
MDA-MB-231 breast = test system: MDA-MB-231 breast
HCT-116 colon = test system: HCT-116 colon
COLO 205 colon = test system: COLO 205 colon
MOLT-4 leukemia = test system: MOLT-4 leukemia
HL-60(TB) leukemia = test system: HL-60(TB) leukemia
U251 CNS = test system: U251 CNS
NCI-H522 lung = test system: NCI-H522 lung
A498 renal = test system: A498 renal
786-0 renal = test system: 786-0 renal
LOX IMVI melanoma = test system: LOX IMVI melanoma
SK-OV-3 ovarian = test system: SK-OV-3 ovarian
OVCAR-4 ovarian = test system: OVCAR-4 ovarian
SNB-19 CNS = test system: SNB-19 CNS
UO-31 renal = test system: UO-31 renal
UACC-257 melanoma = test system: UACC-257 melanoma
NCI-H460 lung = test system: NCI-H460 lung
SW-620 colon = test system: SW-620 colon
MDA-MB-435 = test system: MDA-MB-435
MDA-N = test system: MDA-N
SF-539 CNS = test system: SF-539 CNS
HS 578T breast = test system: HS 578T breast
ACHN renal = test system: ACHN renal
CAKI-1 renal = test system: CAKI-1 renal
K-562 leukemia = test system: K-562 leukemia
NCI-H23 lung = test system: NCI-H23 lung
SK-MEL-5 melanoma = test system: SK-MEL-5 melanoma
TK-10 renal = test system: TK-10 renal
SK-MEL-28 melanoma = test system: SK-MEL-28 melanoma
CCRF-CEM leukemia = test system: CCRF-CEM leukemia
A549 NSCLC = test system: A549 NSCLC
HCC-2998 colon = test system: HCC-2998 colon
NCI-H226 lung = test system: NCI-H226 lung
EKVX NSCLC = test system: EKVX NSCLC
OVCAR-3 ovarian = test system: OVCAR-3 ovarian
KM12 colon = test system: KM12 colon
BT-549 breast = test system: BT-549 breast
HOP-92 NSCLC = test system: HOP-92 NSCLC
NCI/ADR-RES ovarian = test system: NCI/ADR-RES ovarian
PC-3 prostate = test system: PC-3 prostate
HOP-62 NSCLC = test system: HOP-62 NSCLC
HT29 colon = test system: HT29 colon
HCT-15 colon = test system: HCT-15 colon
SR leukemia = test system: SR leukemia
SN12C renal = test system: SN12C renal
MALME-3M melanoma = test system: MALME-3M melanoma
RPMI-8226 leukemia = test system: RPMI-8226 leukemia
RXF 393 renal = test system: RXF 393 renal
UACC-62 melanoma = test system: UACC-62 melanoma
DU-145 prostate = test system: DU-145 prostate
OVCAR-5 ovarian = test system: OVCAR-5 ovarian
T-47D breast = test system: T-47D breast
MCF7 breast = test system: MCF7 breast
M14 melanoma = test system: M14 melanoma
IGROV1 ovarian = test system: IGROV1 ovarian
OVCAR-8 ovarian = test system: OVCAR-8 ovarian
SK-MEL-2 melanoma = test system: SK-MEL-2 melanoma

`NC(C(=O)O)c1cc(=O)[nH]o1` (stereo not drawn) gave a TGI (SF-268 CNS) greater than 100 µM, a TGI (SNB-75 CNS) greater than 100 µM and a TGI (SF-295 CNS) greater than 100 µM. For the same compound, the TGI (MDA-MB-231 breast) was greater than 100 µM, the TGI (HCT-116 colon) was greater than 100 µM and the TGI (COLO 205 colon) was greater than 100 µM. It also gave a TGI (MOLT-4 leukemia) greater than 100 µM, a TGI (HL-60(TB) leukemia) greater than 100 µM and a TGI (U251 CNS) greater than 100 µM. It also gave a TGI (NCI-H522 lung) greater than 100 µM, a TGI (A498 renal) greater than 100 µM and a TGI (786-0 renal) greater than 100 µM. The TGI (LOX IMVI melanoma) was greater than 100 µM, the TGI (SK-OV-3 ovarian) was greater than 100 µM and the TGI (OVCAR-4 ovarian) was greater than 100 µM. The TGI (SNB-19 CNS) was greater than 100 µM, the TGI (UO-31 renal) was greater than 100 µM and the TGI (UACC-257 melanoma) was greater than 100 µM. The TGI (NCI-H460 lung) was greater than 100 µM, the TGI (SW-620 colon) was greater than 100 µM and the TGI (MDA-MB-435) was greater than 100 µM. The TGI (MDA-N) was greater than 100 µM, the TGI (SF-539 CNS) was greater than 100 µM and the TGI (HS 578T breast) was greater than 100 µM. The TGI (ACHN renal) was greater than 100 µM, the TGI (CAKI-1 renal) was greater than 100 µM and the TGI (K-562 leukemia) was greater than 100 µM. For the same compound, the TGI (NCI-H23 lung) was greater than 100 µM, the TGI (SK-MEL-5 melanoma) was greater than 100 µM and the TGI (TK-10 renal) was greater than 100 µM. The TGI (SK-MEL-28 melanoma) was greater than 100 µM, the TGI (CCRF-CEM leukemia) was greater than 100 µM and the TGI (A549 NSCLC) was greater than 100 µM. The TGI (HCC-2998 colon) was greater than 100 µM, the TGI (NCI-H226 lung) was greater than 100 µM and the TGI (EKVX NSCLC) was greater than 100 µM. It also gave a TGI (OVCAR-3 ovarian) greater than 100 µM, a TGI (KM12 colon) greater than 100 µM and a TGI (BT-549 breast) greater than 69.9 µM. The TGI (HOP-92 NSCLC) was greater than 100 µM, the TGI (NCI/ADR-RES ovarian) was greater than 100 µM and the TGI (PC-3 prostate) was greater than 100 µM. The TGI (HOP-62 NSCLC) was greater than 100 µM, the TGI (HT29 colon) was greater than 100 µM and the TGI (HCT-15 colon) was greater than 100 µM. The TGI (SR leukemia) was greater than 100 µM, the TGI (SN12C renal) was greater than 100 µM and the TGI (MALME-3M melanoma) was greater than 100 µM. The TGI (RPMI-8226 leukemia) was greater than 100 µM, the TGI (RXF 393 renal) was greater than 100 µM and the TGI (UACC-62 melanoma) was greater than 100 µM. It also gave a TGI (DU-145 prostate) greater than 100 µM, a TGI (OVCAR-5 ovarian) greater than 100 µM and a TGI (T-47D breast) greater than 100 µM. The TGI (MCF7 breast) was greater than 100 µM, the TGI (M14 melanoma) was greater than 100 µM and the TGI (IGROV1 ovarian) was greater than 100 µM. For the same compound, the TGI (OVCAR-8 ovarian) was greater than 100 µM and the TGI (SK-MEL-2 melanoma) was greater than 100 µM.
In the case of `CC(=O)NCCC1CN(C(=O)/C=C\I)c2ccccc21` (stereo not drawn), the TGI (SF-268 CNS) is reported as 31.6 µM, the TGI (SNB-75 CNS) is reported as 33 µM and the TGI (SF-295 CNS) is reported as 31.5 µM. For the same compound, the TGI (MDA-MB-231 breast) was 8.14 µM, the TGI (HCT-116 colon) was 28.8 µM and the TGI (COLO 205 colon) was 23.9 µM. It also gave a TGI (MOLT-4 leukemia) of 13.7 µM, a TGI (HL-60(TB) leukemia) of 8.49 µM and a TGI (U251 CNS) of 25.9 µM. For the same compound, the TGI (NCI-H522 lung) was 3.29 µM, the TGI (A498 renal) was 41.7 µM and the TGI (786-0 renal) was 24.7 µM. The TGI (LOX IMVI melanoma) was 11.1 µM, the TGI (SK-OV-3 ovarian) was 34.9 µM and the TGI (OVCAR-4 ovarian) was 39 µM. It also gave a TGI (SNB-19 CNS) of 46.9 µM, a TGI (UO-31 renal) of 18.8 µM and a TGI (UACC-257 melanoma) of 26.7 µM. It also gave a TGI (NCI-H460 lung) of 22.3 µM, a TGI (SW-620 colon) of 38.6 µM and a TGI (MDA-MB-435) of 30.8 µM. The TGI (MDA-N) was 26.3 µM, the TGI (SF-539 CNS) was 17.8 µM and the TGI (HS 578T breast) was 67.6 µM. The TGI (ACHN renal) was 28.5 µM, the TGI (CAKI-1 renal) was 3.32 µM and the TGI (K-562 leukemia) was greater than 40.3 µM. The TGI (NCI-H23 lung) was 35.2 µM, the TGI (SK-MEL-5 melanoma) was 16 µM and the TGI (TK-10 renal) was 19.5 µM. It also gave a TGI (SK-MEL-28 melanoma) of 31.6 µM, a TGI (CCRF-CEM leukemia) of 13.3 µM and a TGI (A549 NSCLC) of 31.4 µM. The TGI (HCC-2998 colon) was 28.5 µM, the TGI (NCI-H226 lung) was 27.6 µM and the TGI (EKVX NSCLC) was 34 µM. It also gave a TGI (OVCAR-3 ovarian) of 28.2 µM, a TGI (KM12 colon) of 18.7 µM and a TGI (BT-549 breast) of 38.2 µM. It also gave a TGI (HOP-92 NSCLC) of 46.3 µM, a TGI (NCI/ADR-RES ovarian) greater than 61.7 µM and a TGI (PC-3 prostate) of 24 µM. It also gave a TGI (HOP-62 NSCLC) of 23.3 µM, a TGI (HT29 colon) of 24 µM and a TGI (HCT-15 colon) of 22.1 µM. For the same compound, the TGI (SR leukemia) was greater than 65.9 µM, the TGI (SN12C renal) was 13.1 µM and the TGI (MALME-3M melanoma) was 28.5 µM. It also gave a TGI (RPMI-8226 leukemia) of 9.5 µM, a TGI (RXF 393 renal) of 26.3 µM and a TGI (UACC-62 melanoma) of 28.3 µM. It also gave a TGI (DU-145 prostate) of 33.1 µM, a TGI (OVCAR-5 ovarian) of 30.2 µM and a TGI (T-47D breast) of 37.6 µM. For the same compound, the TGI (MCF7 breast) was 13.4 µM, the TGI (M14 melanoma) was 24 µM and the TGI (IGROV1 ovarian) was 28.4 µM. For the same compound, the TGI (OVCAR-8 ovarian) was 35.8 µM and the TGI (SK-MEL-2 melanoma) was 29.7 µM.
